Measurements reported in patent US5977169A, “Substituted tetronic acids useful for treating HIV and other retroviruses” (priority 1997, dated 1999).
Structures can show the parent of a compound that is named as a salt.

Assays:
HIV-1 protease = target: T1, HIV-1 protease (Human immunodeficiency virus type 1 group M subtype B, UniProt P04585); experiment: In vitro HIV protease inhibitory assay (fluorescently labeled substrate, avidin-polystyrene particles); format: biochemical; conditions: for inhibition at 3.3 µM: HIV-1 dose 3.3 μM; for inhibition at 10 µM: HIV-1 dose 10.0 μM; for inhibition at 30 µM: HIV-1 dose 30.0 μM
T1 construct: The protease (or proteinase) enzyme, consisting of only 99 amino acids
Summary of the method: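 Biotinylated, FITC-labelled peptide substrate cleaved by HIV-1 protease for 1 h at room temperature in the dark, in 0.1 M sodium acetate pH 5.5 with 1.0 M NaCl and 0.05% NP-40. Product separated from substrate with avidin-polystyrene beads and filtration; fluorescence read as percent inhibition at stated compound concentrations.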

HIV-1IIIB = experiment: Inhibition of retroviral replication in human T-cell lines, e.g., MT4 and H9, infected with HIV-1IIIB; format: cell-based
[1] = test system: viral reverse transcriptase; conditions: literature; cited from earlier work
[2] = test compound concentration 3.3 μM
[3] = test compound concentration 10.0 μM
[4] = test compound concentration 30.0 μM

| Compound | inhibition at 3.3 µM (HIV-1 protease) [%] | inhibition at 10 µM (HIV-1 protease) [%] | inhibition at 30 µM (HIV-1 protease) [%] | further results |
| --- | --- | --- | --- | --- |
| Cc1cn([C@H]2C[C@H](N=[N+]=[N-])[C@@H](CO)O2)c(=O)[nH]c1=O [AZT, 3-azido-3-deoxythymidine] | – | – | – | inhibition of viral reverse transcriptase [1]: known inhibitor of viral reverse transcriptase |
| O=C1OC2(CCCCC2Cc2ccccc2)C(O)=C1C(c1ccccc1)C1CC1 (stereo not shown) [IX-7, 1-Oxaspiro[4.5]dec-3-en-2-one, 3-(cyclo-propylphenylmethyl)4-hydroxy-6--(2-phenylmethyl)-] | – | – | – | HIV-1 Protease % Inhibition (HIV-1 protease; [2]): 102.85%; HIV-1 Protease % Inhibition (HIV-1 protease; [3]): 99.7%; HIV-1 Protease % Inhibition (HIV-1 protease; [4]): 95.76% |
| O=C1OC(CCc2ccccc2)C(O)=C1C(c1ccccc1)C1CC1 (stereo not shown) [BX-2, 2(5H)-Furanone, 3(cyclopropylphenylmethyl)-4-hydroxy-5-(2-phenylethyl)-] | – | 81 | – | inhibition at 1 µM (HIV-1 protease; HIV-1 dose 1.0 μM): 47.2%; inhibition at 100 µM (HIV-1 protease; HIV-1 dose 100.0 μM): 81.4% |
| O=C1OC(CCCc2ccccc2)C(O)=C1C(Cc1ccccc1)c1ccccc1 (stereo not shown) [FX-1, 2(5H)-Furanone, 3-(1,2-diphenylethyl)-4-hydroxy-5-(3-phenylpropyl)-] | 15.5 | 35.4 | 50.6 | – |
| CCCCC1OC(=O)C(C(c2ccccc2)C2CC2)=C1O (stereo not shown) [BX-11, 2(5H)-Furanone, 5-butyl-3-(cyclopropylphenylmethyl)-4-hydroxy-] | 45.1 | 78.3 | 93.4 | – |
| CC(C)C1OC(=O)C(C(c2ccccc2)C2CC2)=C1O (stereo not shown) [BX-10, 2(5H)-Furanone, 3-(cyclopropylphenylmethyl)-4-hydroxy-5-(1-methylethyl)-] | 40.5 | 74.6 | 98.6 | – |
| CCCC1(Cc2cccnc2)OC(=O)C(C(c2ccccc2)C2CC2)=C1O (stereo not shown) [DX-6, 2(5H)-Furanone, 3-(cyclopropylphenylmethyl)-4-hydroxy-5-propyl-5-(3--pyridinylmethyl)-] | 103 | 102 | 104 | – |
| O=C1OC(CCc2ccccc2)(CCc2ccccc2)C(O)=C1C(c1ccccc1)C1CC1 (stereo not shown) [DX-9, 2(5H)-Furanone, 3-(cyclopropylphenylmethyl)-4-hydroxy-5,5-bis(2-phenylethyl)-] | 86.7 | 104 | 99.8 | – |
| O=C1OC(Cc2ccccc2)(Cc2ccccc2)C(O)=C1C(c1ccccc1)C1CC1 (stereo not shown) [DX-5, 2(5H)-Furanone, 3-(cyclopropylphenylmethyl)-4-hydroxy-5,5-bis(phenylmethyl)-] | 103 | 116 | 103 | – |
| CCCC1(CCC)OC(=O)C(C(c2cccc(N)c2)C2CC2)=C1O (stereo not shown) [IX-12, 2(5H)-Furanone, 3-((3-aminophenyl)cyclopropylmethyl)-4-hydroxy-5,5-dipropyl-hydrochloride] | – | – | – | HIV-1 Protease % Inhibition (HIV-1 protease; [2]): 117.79%; HIV-1 Protease % Inhibition (HIV-1 protease; [3]): 119.69%; HIV-1 Protease % Inhibition (HIV-1 protease; [4]): 120.48% |
| CCCC1(CCC)OC(=O)C(C(c2ccccc2)C2CC2)=C1O (stereo not shown) [BX-12, 2(5H)-Furanone, 3-(cyclopropylphenylmethyl)-4-hydroxy-5,5-dipropyl-] | 110 | 112 | 95.3 | – |
| CCCC1(CCCc2ccccc2)OC(=O)C(C(c2ccccc2)C2CC2)=C1O (stereo not shown) [DX-1, 2(5H)-Furanone, 3-(cyclopropylphenylmethyl)-4-hydroxy-5-(3-phenyl-propyl)-5-propyl-] | 108 | 106 | 105 | – |

More lines, main results first:

| inhibition at 3.3 µM (HIV-1 protease) [%] | inhibition at 10 µM (HIV-1 protease) [%] | inhibition at 30 µM (HIV-1 protease) [%] | Compound | further results |
| --- | --- | --- | --- | --- |
| 113 | 111 | 119 | CCCC1(CCC)OC(=O)C(C(c2cccc(NS(=O)(=O)c3ccc(C#N)cc3)c2)C2CC2)=C1O (stereo not shown) [IX-14] | inhibition of retroviral replication (HIV-1IIIB): found to inhibit retroviral replication |
| 102 | 101 | 102 | CCCC1(CCC)OC(=O)C(C(c2cccc(NS(=O)(=O)c3cn(C)cn3)c2)C(C)C)=C1O (stereo not shown) [IX-24, 1H-Imidazole-4-sulfonamide, N-(3-(1-(4-hydroxy-2-oxo-5,5-dipropyl-2,5-dihydro-furan-3-yl)-2-methyl-propyl)-phenyl)-1-methyl-] | inhibition of retroviral replication (HIV-1IIIB): found to inhibit retroviral replication |
| 108 | 111 | 108 | CCCC1(CCC)OC(=O)C(C(c2cccc(NS(=O)(=O)c3cn(C)cn3)c2)C2CC2)=C1O (stereo not shown) [IX-17] | inhibition of retroviral replication (HIV-1IIIB): found to inhibit retroviral replication |
| 105 | 117 | 106 | CCCC1(Cc2ccccc2)OC(=O)C(C(c2cccc(NS(=O)(=O)c3ccccc3)c2)C(C)C)=C1O (stereo not shown) [IX-27, Benzenesulfonamide, N-(3-(1-(2,5-dihydro-4-hydroxy-2-oxo-5--(phenylmethyl)-5-propyl-3-furanyl)-2-methylpropyl)phenyl)-] | – |
| 97 | 98.1 | 93.3 | CCC1CCCCC12OC(=O)C(C(c1ccccc1)C1CC1)=C2O (stereo not shown) [IX-34, 1-Oxaspiro[4.5]dec-3-en-2-one, 3-(cyclopropylphenylmethyl)-4-hydroxy-6-ethyl-] | – |
| 82.2 | 98.8 | 91.9 | CCCC1(CCC)OC(=O)C(C(c2cccc(NS(=O)(=O)c3ccc(C#N)cn3)c2)C2CC2)=C1O (stereo not shown) [IX-35, 5-cyano-2-pyridinesulfonamide, N-(3-(cyclopropyl(2,5-dihydro-4-hydroxy-2-oxo-5,5-dipropyl-3-furanyl)methyl)phenyl)-] | – |
| 110 | 104 | 99.9 | CCCC1(CCC)OC(=O)C(C(c2cccc(NS(=O)(=O)c3ccccn3)c2)C2CC2)=C1O (stereo not shown) [IX-52, 2-Pyridinesulfonamide, N-(3-(cyclopropyl-(4-hydroxy-2-oxo-5,5-dipropyl-2,5-dihydro-furan-3-yl)-methyl)-phenyl)-] | – |
| 104 | 108 | 104 | O=C1OC2(CCCCCC2)C(O)=C1C(c1ccccc1)C1CC1 (stereo not shown) [IX-8, 1-Oxaspiro[4.6]undec-3-en-2-one, 3-(cyclo-propylphenylmethyl)-4-hydroxy-] | – |
| 90.3 | 87 | 81.7 | O=C1OC(Cc2ccccc2)(Cc2ccccc2)C(O)=C1C(c1cccc(NS(=O)(=O)c2cccc3cccnc23)c1)C1CC1 (stereo not shown) [IX-46, 8 Quinolinesulfonamide, N-(3-(cyclopropyl-(5,5-dibenzyl-4-hydroxy-2-oxo-2,5-dihydro-3-furanyl)methyl)phenyl)-] | – |
| 101 | 104 | 105 | O=C1OC2(CCCCC2Cc2ccccc2)C(O)=C1C(c1ccccc1)C1CC1 (stereo not shown) [IX-6, 1-Oxaspiro[4.5]dec-3-en-2-one, 3-(cyclo-propylphenylmethyl)-4-hydroxy--6-(2-phenylmethyl)-] | – |
| 95.7 | 101 | 96.1 | CCCC1(CCC)OC(=O)C(C(CC(C)C)c2cccc(NS(=O)(=O)c3ccc(C#N)cc3)c2)=C1O (stereo not shown) [IX-21, Benzenesulfonamide, 4-Cyano-N-(3-(1-(4-hydroxy-2-oxo-5,5-dipropyl-2,5-dihydro-furan-3-yl)-3-methyl-butyl)-phenyl)-] | – |
| 81.9 | 101 | 92.5 | N#Cc1ccc(S(=O)(=O)Nc2cccc(CC3=C(O)C(Cc4ccccc4)(Cc4ccccc4)OC3=O)c2)cc1 [IX-56] | – |
| 93.8 | 93.8 | 96.3 | CCCC1(CCC)OC(=O)C(C(c2cccc(NS(=O)(=O)c3ncccn3)c2)C2CC2)=C1O (stereo not shown) [IX-55, 2-Pyrimidinesulfonamide, N-(3-(cyclopropyl-(4-hydroxy-2-oxo-5,5-dipropyl-2,5 dihydro-furan-3-yl)-methyl)-phenyl)-] | – |
| 108 | 121 | 122 | CCCC1(CCC)OC(=O)C(C(c2cccc([N+](=O)[O-])c2)C2CC2)=C1O (stereo not shown) [IX-1, 2(5H)-Furanone, 3-(cyclopropyl(3-nitrophenyl)methyl)-4-hydroxy-5,5-dipropyl-] | – |
| 107 | 114 | 109 | CCCC1(Cc2ccccc2)OC(=O)C(C(c2cccc(NS(=O)(=O)c3cccc4cccnc34)c2)C(C)C)=C1O (stereo not shown) [IX-31] | – |
| 94.5 | 96 | 96.8 | CCCC1(CCC)OC(=O)C(C(c2cccc(NS(=O)(=O)c3cn(C)cn3)c2)C2CCCC2)=C1O (stereo not shown) [IX-42, 1H-Imidazole-4-sulfonamide, N-(3-(cyclopentyl(2,5-dihydro-4-hydroxy-2-oxo-5,5-dipropyl-3-furanyl)methyl)phenyl)-1-methyl-] | – |
| 76.8 | 78.1 | 106 | CCCC1(CCC)OC(=O)C(C(Cc2ccccc2)c2cccc(NS(=O)(=O)c3ccc(C#N)cc3)c2)=C1O (stereo not shown) [IX-39, Benzenesulfonamide, 4-cyano-N-(3-(1-(4-hydroxy-2-oxo-5,5-dipropyl-2,5-dihydro-furan-3-yl)-2-phenyl-ethyl)-phenyl)-] | – |
| 102 | 114 | 103 | O=C1OC2(CCCCC2)C(O)=C1C(c1ccccc1)C1CC1 (stereo not shown) [IX-3, 1-Oxaspiro[4.5]dec-3-en-2-one, 3-(cyclopropyl-phenylmethyl)-4-hydroxy-] | – |
| 98.6 | 96.8 | 99.8 | N#Cc1ccc(S(=O)(=O)Nc2cccc(C(C3=C(O)C(Cc4ccccc4)(Cc4ccccc4)OC3=O)C3CC3)c2)cc1 (stereo not shown) [IX-43] | – |
